Assay results published in ChEMBL document CHEMBL1201862, “PubChem BioAssay data set” (2004).
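Where inhibition never reached the appropriate level, the endpoint shown equals the highest concentration tested. Otherwise, values were interpolated linearly from a five-concentration, 48-hour dose response in 96-well plates. GI50 = concentration required for 50% inhibition of growth.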 Active and inactive are the calls of the source. Rule as the data show it: active = GI50 up to about 1.1 µM and inactive = higher.

Assays:
Test in all cases: DTP human tumour cell line panel, 48 h
NCI/ADR-RES = test system: NCI/ADR-RES
OVCAR-5 = test system: OVCAR-5
SW-620 = test system: SW-620
CAKI-1 = test system: CAKI-1
NCI-H23 = test system: NCI-H23
HCT-15 = test system: HCT-15
SNB-19 = test system: SNB-19
SF-539 = test system: SF-539
RXF 393 = test system: RXF 393
UACC-62 = test system: UACC-62
MDA-MB-435 = test system: MDA-MB-435
NCI-H522 = test system: NCI-H522
NCI-H226 = test system: NCI-H226
OVCAR-8 = test system: OVCAR-8
MOLT-4 = test system: MOLT-4
SK-MEL-5 = test system: SK-MEL-5
COLO 205 = test system: COLO 205
Malme-3M = test system: Malme-3M
ACHN = test system: ACHN
MDA-MB-231 = test system: MDA-MB-231
BT-549 = test system: BT-549
HCC 2998 = test system: HCC 2998
786-0 = test system: 786-0
NCI-H460 = test system: NCI-H460
SF-268 = test system: SF-268
RPMI-8226 = test system: RPMI-8226
Hs-578T = test system: Hs-578T
EKVX = test system: EKVX
HCT-116 = test system: HCT-116
SK-MEL-2 = test system: SK-MEL-2
SK-MEL-28 = test system: SK-MEL-28
IGROV-1 = test system: IGROV-1
SF-295 = test system: SF-295
OVCAR-3 = test system: OVCAR-3
SN12C = test system: SN12C
A549 = test system: A549
M14 = test system: M14
HOP-62 = test system: HOP-62
SK-OV-3 = test system: SK-OV-3
OVCAR-4 = test system: OVCAR-4
U-251 = test system: U-251
SR = test system: SR
A498 = test system: A498
TK-10 = test system: TK-10
HL-60 = test system: HL-60
T47D = test system: T47D
UACC-257 = test system: UACC-257
CCRF-CEM = test system: CCRF-CEM
MDA-N = test system: MDA-N
K562 = test system: K562
DU-145 = test system: DU-145
PC-3 = test system: PC-3
LOX IMVI = test system: LOX IMVI
HT-29 = test system: HT-29
MCF7 = test system: MCF7
KM12 = test system: KM12
UO-31 = test system: UO-31
SNB-75 = test system: SNB-75
HOP-92 = test system: HOP-92

Clc1ccc(Cl)c(NNc2cc(Cl)ccc2Cl)c1
GI50 (NCI/ADR-RES): 2.92 µM (inactive)
GI50 (OVCAR-5): > 10 µM (inactive)
GI50 (SW-620): > 10 µM (inactive)
GI50 (CAKI-1): > 10 µM (inactive)
GI50 (NCI-H23): 2.82 µM (inactive)
GI50 (HCT-15): 3.61 µM
GI50 (SNB-19): 9.79 µM (inactive)
GI50 (SF-539): > 10 µM (inactive)
GI50 (RXF 393): 6.22 µM (inactive)
GI50 (UACC-62): 3.88 µM (inactive)
GI50 (MDA-MB-435): 8.09 µM (inactive)
GI50 (NCI-H522): 3.68 µM (inactive)
GI50 (NCI-H226): > 10 µM (inactive)
GI50 (OVCAR-8): 7.64 µM (inactive)
GI50 (MOLT-4): > 10 µM (inactive)
GI50 (SK-MEL-5): 2.76 µM (inactive)
GI50 (COLO 205): > 10 µM (inactive)
GI50 (Malme-3M): 3.82 µM (inactive)
GI50 (ACHN): 2.84 µM (inactive)
GI50 (MDA-MB-231): > 10 µM (inactive)
GI50 (BT-549): 5.19 µM (inactive)
GI50 (HCC 2998): 7.03 µM (inactive)
GI50 (786-0): > 10 µM (inactive)
GI50 (NCI-H460): 3.66 µM (inactive)
GI50 (SF-268): 4.69 µM (inactive)
GI50 (RPMI-8226): 4.3 µM (inactive)
GI50 (Hs-578T): > 10 µM (inactive)
GI50 (EKVX): 4.45 µM (inactive)
GI50 (HCT-116): 3.84 µM (inactive)
GI50 (SK-MEL-2): 2.83 µM (inactive)
GI50 (SK-MEL-28): 6.38 µM (inactive)
GI50 (IGROV-1): 4.67 µM (inactive)
GI50 (SF-295): > 10 µM (inactive)
GI50 (OVCAR-3): 3.08 µM (inactive)
GI50 (SN12C): 4.07 µM (inactive)
GI50 (A549): 6.67 µM (inactive)
GI50 (M14): > 10 µM (inactive)
GI50 (HOP-62): > 10 µM (inactive)
GI50 (SK-OV-3): 5.79 µM (inactive)
GI50 (OVCAR-4): 4.95 µM (inactive)
GI50 (U-251): 7.59 µM (inactive)
GI50 (SR): 8.81 µM (inactive)
GI50 (A498): > 10 µM (inactive)
GI50 (TK-10): 4.76 µM (inactive)
GI50 (HL-60): > 10 µM (inactive)
GI50 (T47D): 4.28 µM (inactive)
GI50 (UACC-257): > 10 µM (inactive)
GI50 (CCRF-CEM): 3.63 µM (inactive)
GI50 (MDA-N): 5.57 µM (inactive)
GI50 (K562): > 10 µM (inactive)
GI50 (DU-145): 5.37 µM (inactive)
GI50 (PC-3): 3.66 µM (inactive)
GI50 (LOX IMVI): 3.57 µM (inactive)
GI50 (HT-29): > 10 µM (inactive)
GI50 (MCF7): 7.74 µM (inactive)
GI50 (KM12): > 10 µM (inactive)

COC1=C(OC)C(=O)C(C/C=C/c2c(Cl)nc3sccn23)=C(C)C1=O
GI50 (NCI/ADR-RES): 5.58 µM (inactive)
GI50 (OVCAR-5): 16.9 µM (inactive)
GI50 (SW-620): 21.3 µM (inactive)
GI50 (CAKI-1): 12.2 µM (inactive)
GI50 (NCI-H23): 0.518 µM (active)
GI50 (HCT-15): 26.5 µM
GI50 (SNB-19): 14.1 µM (inactive)
GI50 (SF-539): 17.2 µM (inactive)
GI50 (RXF 393): 18.4 µM (inactive)
GI50 (UACC-62): 14.5 µM (inactive)
GI50 (MDA-MB-435): 9.16 µM (inactive)
GI50 (NCI-H522): 15.1 µM (inactive)
GI50 (OVCAR-8): 10.4 µM (inactive)
GI50 (UO-31): 18.7 µM (inactive)
GI50 (MOLT-4): 1.69 µM (inactive)
GI50 (SK-MEL-5): 1.32 µM (inactive)
GI50 (COLO 205): 16.9 µM (inactive)
GI50 (Malme-3M): 3.75 µM (inactive)
GI50 (ACHN): 15.5 µM (inactive)
GI50 (MDA-MB-231): 7.67 µM (inactive)
GI50 (BT-549): 15 µM (inactive)
GI50 (HCC 2998): 18.2 µM (inactive)
GI50 (786-0): 21.5 µM (inactive)
GI50 (NCI-H460): 17.9 µM (inactive)
GI50 (SF-268): 16 µM (inactive)
GI50 (RPMI-8226): 4.35 µM (inactive)
GI50 (Hs-578T): 20.5 µM (inactive)
GI50 (EKVX): 11.2 µM (inactive)
GI50 (HCT-116): 12.8 µM (inactive)
GI50 (SK-MEL-2): 16.4 µM (inactive)
GI50 (SK-MEL-28): 17.9 µM (inactive)
GI50 (IGROV-1): 17.4 µM (inactive)
GI50 (SF-295): 2.1 µM (inactive)
GI50 (OVCAR-3): 13.7 µM (inactive)
GI50 (SN12C): 16.6 µM (inactive)
GI50 (A549): 11.2 µM (inactive)
GI50 (M14): 16.2 µM (inactive)
GI50 (HOP-62): 16.8 µM (inactive)
GI50 (SK-OV-3): 16.7 µM (inactive)
GI50 (OVCAR-4): 0.398 µM (active)
GI50 (U-251): 5.87 µM (inactive)
GI50 (SR): 15 µM (inactive)
GI50 (A498): 22.2 µM (inactive)
GI50 (TK-10): 15 µM (inactive)
GI50 (T47D): 7.74 µM (inactive)
GI50 (UACC-257): 0.536 µM (active)
GI50 (CCRF-CEM): 1.85 µM (inactive)
GI50 (MDA-N): 6.38 µM (inactive)
GI50 (K562): 19.8 µM (inactive)
GI50 (DU-145): 18.5 µM (inactive)
GI50 (PC-3): 11.8 µM (inactive)
GI50 (LOX IMVI): 2.24 µM (inactive)
GI50 (HT-29): 20.7 µM (inactive)
GI50 (MCF7): 5.19 µM (inactive)
GI50 (KM12): 17.5 µM (inactive)

Cc1cc(C)nc(NS(=O)(=O)c2ccc(NC(=O)c3ccc4nc5ccccc5c(Nc5ccc(S(=O)(=O)N=C(N)N)cc5)c4c3)cc2)n1
GI50 (NCI/ADR-RES): > 100 µM (inactive)
GI50 (OVCAR-5): > 100 µM (inactive)
GI50 (SW-620): > 100 µM (inactive)
GI50 (CAKI-1): > 100 µM (inactive)
GI50 (NCI-H23): > 100 µM (inactive)
GI50 (HCT-15): > 100 µM
GI50 (SNB-19): > 100 µM (inactive)
GI50 (SF-539): > 100 µM (inactive)
GI50 (RXF 393): > 100 µM (inactive)
GI50 (UACC-62): > 100 µM (inactive)
GI50 (MDA-MB-435): > 100 µM (inactive)
GI50 (NCI-H522): > 100 µM (inactive)
GI50 (NCI-H226): > 100 µM (inactive)
GI50 (OVCAR-8): > 100 µM (inactive)
GI50 (UO-31): > 100 µM (inactive)
GI50 (MOLT-4): > 100 µM (inactive)
GI50 (SNB-75): > 100 µM (inactive)
GI50 (SK-MEL-5): > 100 µM (inactive)
GI50 (COLO 205): > 100 µM (inactive)
GI50 (Malme-3M): > 100 µM (inactive)
GI50 (ACHN): > 100 µM (inactive)
GI50 (MDA-MB-231): > 100 µM (inactive)
GI50 (BT-549): > 100 µM (inactive)
GI50 (HCC 2998): > 100 µM (inactive)
GI50 (786-0): > 100 µM (inactive)
GI50 (NCI-H460): > 100 µM (inactive)
GI50 (SF-268): > 100 µM (inactive)
GI50 (RPMI-8226): > 100 µM (inactive)
GI50 (Hs-578T): > 100 µM (inactive)
GI50 (EKVX): > 100 µM (inactive)
GI50 (HCT-116): > 100 µM (inactive)
GI50 (SK-MEL-2): > 100 µM (inactive)
GI50 (SK-MEL-28): > 100 µM (inactive)
GI50 (IGROV-1): > 100 µM (inactive)
GI50 (SF-295): > 100 µM (inactive)
GI50 (OVCAR-3): > 100 µM (inactive)
GI50 (SN12C): > 100 µM (inactive)
GI50 (HOP-92): 32.4 µM (inactive)
GI50 (A549): > 100 µM (inactive)
GI50 (M14): > 100 µM (inactive)
GI50 (HOP-62): > 100 µM (inactive)
GI50 (SK-OV-3): > 100 µM (inactive)
GI50 (OVCAR-4): > 100 µM (inactive)
GI50 (U-251): > 100 µM (inactive)
GI50 (SR): > 100 µM (inactive)
GI50 (TK-10): > 100 µM (inactive)
GI50 (HL-60): > 100 µM (inactive)
GI50 (T47D): > 100 µM (inactive)
GI50 (UACC-257): > 100 µM (inactive)
GI50 (CCRF-CEM): 68.5 µM (inactive)
GI50 (MDA-N): > 100 µM (inactive)
GI50 (K562): 46.6 µM (inactive)
GI50 (DU-145): > 100 µM (inactive)
GI50 (PC-3): > 100 µM (inactive)
GI50 (LOX IMVI): > 100 µM (inactive)
GI50 (HT-29): > 100 µM (inactive)
GI50 (MCF7): > 100 µM (inactive)
GI50 (KM12): > 100 µM (inactive)
